Read-outs that look alike come from different tables or passages of the source.
Tests used:
[1] = target: BRD4 BD1 protein (Homo sapiens (Human), UniProt O60885); assay: Fluorescence polarization binding affinity (Ki) with BRD4 BD1 protein
[2] = target: BRD4 BD2 protein (Homo sapiens (Human), UniProt O60885); assay: Fluorescence polarization binding affinity (Ki) with BRD4 BD2 protein
[3] = fluorescence polarization, Ki calculated from IC50

| Structure (SMILES) | Ki [1, 3] | Ki [2, 3] | Ki [1] | Ki [2] |
| --- | --- | --- | --- | --- |
| Cc1nnn2c1-c1ccc(-c3cnn(C)c3)cc1C(Nc1ccccc1C#N)CC2 (stereo not shown) [LC136, 2-((1-methyl-9-(1-methyl-1H-pyrazol-4-yl)-6,7-dihydro-5H-benzo[c][1,2,3]triazolo[1,5-a]azepin-7-yl)amino)benzonitrile] | 49.7 nM | 8.83 nM | – | – |
| Cc1nnn2c1-c1ccc(C3=CCN(C4CCCC4)CC3)cc1C(Nc1cccc(S(C)(=O)=O)c1)CC2 (stereo not shown) [BI55, 9-(1-cyclopentyl-1,2,3,6-tetrahydropyridin-4-yl)-1-methyl-N-(3-(methylsulfonyl)phenyl)-6,7-dihydro-5H-benzo[c][1,2,3]triazolo[1,5-a]azepin-7-amine 2,2,2-trifluoroacetate] | 3100 nM | 116 nM | – | – |
| Cc1nnn2c1-c1ccc(-c3cnn(C)c3)cc1C(Nc1cccc(CCN(C)C)c1)CC2 (stereo not shown) [LC101, N-(3-(2-(dimethylamino)ethyl)phenyl)-1-methyl-9-(1-methyl-1H-pyrazol-4-yl)-6,7-dihydro-5H-benzo[c][1,2,3]triazolo[1,5-a]azepin-7-amine] | 89 nM | 13.6 nM | – | – |
| COc1cccc(NC2CCn3nnc(C)c3-c3ccc(C4=CCN(C)CC4)cc32)c1 (stereo not shown) [BH23, N-(3-methoxyphenyl)-1-methyl-9-(1-methyl-1,2,3,6-tetrahydropyridin-4-yl)-6,7-dihydro-5H-benzo[c][1,2,3]triazolo[1,5-a]azepin-7-amine 2,2,2-trifluoroacetate] | 751 nM | 75.3 nM | – | – |
| CCN1CCC(c2ccc3c(c2)C(Nc2cccc(Cl)c2)CCn2nnc(C)c2-3)CC1 (stereo not shown) [RD142, N-(3-chlorophenyl)-9-(1-ethylpiperidin-4-yl)-1-methyl-6,7-dihydro-5H-benzo[c][1,2,3]triazolo[1,5-a]azepin-7-amine 2,2,2-trifluoroacetate] | 4410 nM | 193 nM | – | – |
| CCN1CC=C(c2ccc3c(c2)C(Nc2cc(Cl)ccc2F)CCn2nnc(C)c2-3)CC1 (stereo not shown) [RD123, N-(5-chloro-2-fluorophenyl)-9-(1-ethyl-1,2,3,6-tetrahydropyridin-4-yl)-1-methyl-6,7-dihydro-5H-benzo[c][1,2,3]triazolo[1,5-a]azepin-7-amine 2,2,2-trifluoroacetate] | – | – | 1090 nM | 40.8 nM |
| Cc1nnn2c1-c1ccc(C3=CCNCC3)cc1C(Nc1cccc(CC#N)c1)CC2 (stereo not shown) [RC71, 2-(3-((1-methyl-9-(1,2,3,6-tetrahydropyridin-4-yl)-6,7-dihydro-5H-benzo[c][1,2,3]triazolo[1,5-a]azepin-7-yl)amino)phenyl)acetonitrile 2,2,2-trifluoroacetate] | 1040 nM | 52.5 nM | – | – |
| Cc1nnn2c1-c1ccc(C3=CCN(C4CCC4)CC3)cc1C(Nc1cccc(S(C)(=O)=O)c1)CC2 (stereo not shown) [BI61, 9-(1-cyclobutyl-1,2,3,6-tetrahydropyridin-4-yl)-1-methyl-N-(3-(methylsulfonyl)phenyl)-6,7-dihydro-5H-benzo[c][1,2,3]triazolo[1,5-a]azepin-7-amine 2,2,2-trifluoroacetate] | 3200 nM | 148 nM | – | – |
| COc1cccc(NC2CCn3nnc(C)c3-c3ccc(C4=CCN(C(C)=O)CC4)cc32)c1 (stereo not shown) [BH27, 1-(4-(7-((3-methoxyphenyl)amino)-1-methyl-6,7-dihydro-5H-benzo[c][1,2,3]triazolo[1,5-a]azepin-9-yl)-3,6-dihydropyridin-1(2H)-yl)ethan-1-one] | 70.1 nM | 2.95 nM | – | – |
| Cc1nnn2c1-c1ccc(-c3cnn(C)c3)cc1C(Nc1ccccc1CCN(C)C)CC2 (stereo not shown) [LC99, N-(2-(2-(dimethylamino)ethyl)phenyl)-1-methyl-9-(1-methyl-1H-pyrazol-4-yl)-6,7-dihydro-5H-benzo[c][1,2,3]triazolo[1,5-a]azepin-7-amine] | 38.4 nM | 12.9 nM | – | – |
| CNC(=O)Cc1ccccc1NC1CCn2nnc(C)c2-c2ccc(C3=CCNCC3)cc21 (stereo not shown) [LC132] | 724 nM | 55.9 nM | – | – |
| Cc1nnn2c1-c1ccc(C3=CCNCC3)cc1C(Nc1ccc(F)cc1)CC2 (stereo not shown) [BJ122, N-(4-fluorophenyl)-1-methyl-9-(1,2,3,6-tetrahydropyridin-4-yl)-6,7-dihydro-5H-benzo[c][1,2,3]triazolo[1,5-a]azepin-7-amine 2,2,2-trifluoroacetate] | 757 nM | 68.6 nM | – | – |
| CCN1CC=C(c2ccc3c(c2)C(Nc2cccc(C#N)c2)CCn2nnc(C)c2-3)CC1 (stereo not shown) [BI37, 3-((9-(1-ethyl-1,2,3,6-tetrahydropyridin-4-yl)-1-methyl-6,7-dihydro-5H-benzo[c][1,2,3]triazolo[1,5-a]azepin-7-yl)amino)benzonitrile 2,2,2-trifluoroacetate] | 2570 nM | 196 nM | – | – |
| Cc1nnn2c1-c1ccc(C3=CCNCC3)cc1C(Nc1ccc3cc[nH]c3c1)CC2 (stereo not shown) [WA83, N-(1H-indo1-6-yl)-1-methyl-9-(1,2,3,6-tetrahydropyridin-4-yl)-6,7-dihydro-5H-benzo[c][1,2,3]triazolo[1,5-a]azepin-7-amine 2,2,2-trifluoroacetate] | 431 nM | 88.6 nM | – | – |
| Cc1nnn2c1-c1ccc(C3=CCNCC3)cc1C(Nc1ccc(F)c(Cl)c1)CC2 (stereo not shown) [LC192, N-(3-chloro-4-fluorophenyl)-1-methyl-9-(1,2,3,6-tetrahydropyridin-4-yl)-6,7-dihydro-5H-benzo[c][1,2,3]triazolo[1,5-a]azepin-7-amine 2,2,2-trifluoroacetate] | 819 nM | 56.6 nM | – | – |
| CCC(=O)N1CC=C(c2ccc3c(c2)C(Nc2ccc(Cl)cc2)CCn2nnc(C)c2-3)CC1 (stereo not shown) [LD14, 1-(4-(7-((4-chlorophenyl)amino)-1-methyl-6,7-dihydro-5H-benzo[c][1,2,3]triazolo[1,5-a]azepin-9-yl)-3,6-dihydropyridin-1(2H)-yl)propan-1-one] | 14.3 nM | 6.14 nM | – | – |
| Cc1nnn2c1-c1ccc(C3=CCNC3)cc1C(Nc1cccc(Cl)c1)CC2 (stereo not shown) [BJ179, N-(3-chlorophenyl)-9-(2,5-dihydro-1H-pyrrol-3-yl)-1-methyl-6,7-dihydro-5H-benzo[c][1,2,3]triazolo[1,5-a]azepin-7-amine 2,2,2-trifluoroacetate] | 436 nM | 25.9 nM | – | – |
| Cc1nnn2c1-c1ccc(C3=CCN(C4CCCC4)CC3)cc1C(Nc1cccc(Cl)c1F)CC2 (stereo not shown) [RD179, N-(3-chloro-2-fluorophenyl)-9-(1-cyclopentyl-1,2,3,6-tetrahydropyridin-4-yl)-1-methyl-6,7-dihydro-5H-benzo[c][1,2,3]triazolol[1,5-a]azepin-7-amine 2,2,2-trifluoroacetate] | 2810 nM | 32.6 nM | – | – |
| Cc1nnn2c1-c1ccc(C3=CCN(C)CC3)cc1C(Nc1ccccc1Cl)CC2 (stereo not shown) [RD06, N-(2-chlorophenyl)-1-methyl-9-(1-methyl-1,2,3,6-tetrahydropyridin-4-yl)-6,7-dihydro-5H-benzo[c][1,2,3]triazolo[1,5-a]azepin-7-amine 2,2,2-trifluoroacetate] | 1030 nM | 56.4 nM | – | – |
| Cc1nnn2c1-c1ccc(C3=CCNCC3)cc1C(Nc1ccc3[nH]ccc3c1)CC2 (stereo not shown) [WA82, N-(1H-indo1-5-yl)-1-methyl-9-(1,2,3,6-tetrahydropyridin-4-yl)-6,7-dihydro-5H-benzo[c][1,2,3]triazolo[1,5-a]azepin-7-amine 2,2,2-trifluoroacetate] | 436 nM | 53.6 nM | – | – |
| CCC(=O)N1CC=C(c2ccc3c(c2)C(Nc2cccc(Cl)c2)CCn2nnc(C)c2-3)CC1 (stereo not shown) [BH86, 1-(4-(7-((3-chlorophenyl)amino)-1-methyl-6,7-dihydro-5H-benzo[c][1,2,3]triazolo[1,5-a]azepin-9-yl)-3,6-dihydropyridin-1(2H)-yl)propan-1-one] | 9.51 nM | 6.43 nM | – | – |
| Cc1nnn2c1-c1ccc(C3=CCNCC3)cc1C(Nc1ccccc1C#N)CC2 (stereo not shown) [RC116, 2-((1-methyl-9-(1,2,3,6-tetrahydropyridin-4-yl)-6,7-dihydro-5H-benzo[c][1,2,3]triazolo[1,5-a]azepin-7-yl)amino)benzonitrile 2,2,2-trifluoroacetate] | 1000 nM | 115 nM | – | – |
| CCn1cc(-c2ccc3c(c2)[C@H](Nc2ccc(Cl)cc2)CCn2nnc(C)c2-3)cn1 [RE136, (R)—N-(4-chlorophenyl)-9-(1-ethyl-1H-pyrazol-4-yl)-1-methyl-6,7-dihydro-5H-benzo[c][1,2,3]triazolo[1,5-a]azepin-7-amine] | 2.66 ± 0.37 nM | < 1 nM | – | – |
| COC(=O)c1ccccc1NC1CCn2nnc(C)c2-c2ccc(-c3cnn(C)c3)cc21 (stereo not shown) [LB160, methyl 2-((1-methyl-9-(1-methyl-1H-pyrazol-4-yl)-6,7-dihydro-5H-benzo[c][1,2,3]triazolo[1,5-a]azepin-7-yl)amino)benzoate] | 96.4 nM | 12.5 nM | – | – |
| Cc1nnn2c1-c1ccc(-c3cnn(C)c3)cc1C(NC1CCCCC1)CC2 (stereo not shown) [BH46, N-cyclohexyl-1-methyl-9-(1-methyl-1H-pyrazol-4-yl)-6,7-dihydro-5H-benzo[c][1,2,3]triazolo[1,5-a]azepin-7-amine 2,2,2-trifluoroacetate] | 689 nM | 907 nM | – | – |
| Cc1nnn2c1-c1ccc(-c3cnn(C)c3)cc1C(Nc1ccccc1Cl)CC2 (stereo not shown) [LC191, N-(2-chlorophenyl)-1-methyl-9-(1-methyl-1H-pyrazol-4-yl)-6,7-dihydro-5H-benzo[c][1,2,3]triazolo[1,5-a]azepin-7-amine] | 51.8 nM | 11.2 nM | – | – |
| Cc1nnn2c1-c1ccc(C3=CCNCC3)cc1C(Nc1cccc(CC(=O)O)c1)CC2 (stereo not shown) [LC87, 2-(3-((1-methyl-9-(1,2,3,6-tetrahydropyridin-4-yl)-6,7-dihydro-5H-benzo[c][1,2,3]triazolo[1,5-a]azepin-7-yl)amino)phenyl) acetic acid] | > 20000 nM | 142 nM | – | – |
| Cc1nnn2c1-c1ccc(C3=CCNCC3)cc1C(Nc1ccccc1Cl)CC2 (stereo not shown) [LC84, N-(2-chlorophenyl)-1-methyl-9-(1,2,3,6-tetrahydropyridin-4-yl)-6,7-dihydro-5H-benzo[c][1,2,3]triazolo[1,5-a]azepin-7-amine 2,2,2-trifluoroacetate] | 845 nM | 37.8 nM | – | – |
| COc1ccc2c(c1)C(Nc1ccc(Cl)cc1)CCc1onc(C)c1-2 (stereo not shown) [FA02, N-(4-chlorophenyl)-8-methoxy-1-methyl-5,6-dihydro-4H-benzo[6,7]cyclohepta[1,2-d]isoxazol-6-amine] | 58.3 nM | 37.1 nM | – | – |
